Assay results from US7205295B2, “Benzoxazin-3-ones and derivatives thereof as therapeutic agents” (Warner-Lambert Company LLC, priority 2002, dated 2007).

Molecular target: T1, PI3Kγ (p101/p110γ protein) (Homo sapiens, UniProt P48736)
T1 construct: HA; made in house; host or cells: Spodoptera frugiperda (Sf9) cells, baculovirus co-infection
Assay: PI3Kγ In Vitro Kinase Assay
Format: biochemical
Settings: purified recombinant p101/p110γ with G protein β1/γ2 subunits; 20 μM ATP, 25 μM PIP2; 20 minutes at room temperature
Description: Spodtera frugiperda cells, grown in ESF921 media, were coinfected with baculovirus expressing a glu-tagged p101 and baculovirus expressing an HA-tagged p110γ, at a 3:1 ratio of p101 baculovirus to p110γ baculovirus. Sf9 cells were grown to 1×10^7 total cells/mL in 10L bioreactors and harvested 48-72 hours post infection. Samples of infected cells were then tested for expression of p101/p110γ PI3 kinase by immunoprecipitation and Western Blot analysis methods (see below). […] NaCl was added to 150 mM, and sodium cholate was added to 1% and mixed for another 45 minutes. The lysates were clarified by centrifugation for 25 minutes at 14,000 rpm. The lysates were then loaded over anti-glu-linked Protein-G Sepaharose beads (Covance Research Products, Richmond, Calif.) using 20 mL resin/50 g cell paste. […] PI3Kγ was eluted with 6 column volumes of wash buffer that contain 100 μg/mL of a peptide that competes for binding of the glu tag. […] The fractions were stored at -80° C. until further use. Spodtera frugiperda cells were coinfected with baculovirus expressing a glu-tagged G protein β1 and baculovirus expressing a G protein […] at a 1:1 ratio of glu-tagged G protein β1 baculovirus to G protein β2 baculovirus. Sf9 cells are grown in 10 L bioreactors and harvested 48-72 hours post infection. Samples of infected cells were tested for G protein β1/β2 expression by Western Blot analysis, as described below. Cell lysates were homogenized and loaded onto a column of glu-tagged beads as in Biological Example 1 and competed off the column with a glu peptide as described in Biological Example 1. The inhibitory properties of the compounds in Table 1 were assayed in an in vitro PI3K assay. In a 96-well polypropylene plate, each well was spotted with 2 μL of […] the desired final concentration of compound in DMSO. Purified recombinant p101/p110γ protein (0.03 μg; 2.7 nM) and G protein β1/γ2 subunits (0.09 μg; 57.7 nM) for each reaction was combined in the assay buffer (30 mM HEPES, 100 mM NaCl, 1 mM EGTA, and 1 mM DTT). ATP and [γ-^32P-ATP] (0.09 μCi) were added to this mixture so that the final ATP concentration in the reaction was 20 μM. Lipid micelles were formed by sonicating phosphatidylinositol-4,5-diphosphate (PIP2), phosphatidylethanolamine (PE), and Na-cholate in the assay buffer for 10 minutes, adding MgCL2 and incubating on ice for 20 minutes, for final concentrations of 25 μM PIP2, 300 [M PE, 0.02% Na-cholate, and 10 mM MgCl2 in the reaction. The reactions were started by adding equal volumes lipid and enzyme mixture in a total volume of 50 μL, allowed to run for 20 minutes at room temperature, and stopped with 100 μL 75 mM H3PO4. The lipid product was transferred to a glass fiber filter plate and washed with 75 mM H3PO4 several times. The presence of radioactive lipid product (PIP3) was measured by adding Wallac Optiphase mix to each well and counting in a Wallac 1450 Trilux plate reader (PerkinElmer Life Sciences Inc., Boston, Mass. 02118).

T1 sequence (P48736 whole entry, species assumed): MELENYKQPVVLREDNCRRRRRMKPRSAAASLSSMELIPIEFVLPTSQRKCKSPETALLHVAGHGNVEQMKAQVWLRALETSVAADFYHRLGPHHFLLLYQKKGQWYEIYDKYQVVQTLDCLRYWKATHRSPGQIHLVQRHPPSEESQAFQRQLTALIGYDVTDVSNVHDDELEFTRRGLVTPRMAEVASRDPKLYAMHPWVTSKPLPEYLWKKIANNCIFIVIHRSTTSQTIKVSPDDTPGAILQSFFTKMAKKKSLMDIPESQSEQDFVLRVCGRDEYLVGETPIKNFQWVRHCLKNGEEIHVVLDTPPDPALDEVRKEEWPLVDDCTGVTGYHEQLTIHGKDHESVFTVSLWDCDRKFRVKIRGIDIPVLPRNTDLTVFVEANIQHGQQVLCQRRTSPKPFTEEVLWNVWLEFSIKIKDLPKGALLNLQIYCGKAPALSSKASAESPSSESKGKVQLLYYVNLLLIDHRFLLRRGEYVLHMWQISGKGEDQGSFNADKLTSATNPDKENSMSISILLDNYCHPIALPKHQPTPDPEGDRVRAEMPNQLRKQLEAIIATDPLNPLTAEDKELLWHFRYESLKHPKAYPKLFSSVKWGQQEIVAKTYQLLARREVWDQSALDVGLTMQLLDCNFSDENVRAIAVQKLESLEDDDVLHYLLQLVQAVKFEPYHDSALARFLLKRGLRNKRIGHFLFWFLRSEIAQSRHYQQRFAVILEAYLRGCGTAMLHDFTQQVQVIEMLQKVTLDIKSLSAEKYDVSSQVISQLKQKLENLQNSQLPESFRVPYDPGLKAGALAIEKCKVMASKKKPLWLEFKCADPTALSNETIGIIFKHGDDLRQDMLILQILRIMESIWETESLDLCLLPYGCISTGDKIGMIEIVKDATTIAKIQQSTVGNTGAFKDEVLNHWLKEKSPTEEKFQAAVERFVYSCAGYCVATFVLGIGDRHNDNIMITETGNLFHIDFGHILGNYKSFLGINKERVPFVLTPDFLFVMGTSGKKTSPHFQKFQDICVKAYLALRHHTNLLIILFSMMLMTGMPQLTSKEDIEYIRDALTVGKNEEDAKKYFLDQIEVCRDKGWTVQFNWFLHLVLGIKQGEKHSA
T1 sequence (Q8WYR1 whole entry partner, species assumed): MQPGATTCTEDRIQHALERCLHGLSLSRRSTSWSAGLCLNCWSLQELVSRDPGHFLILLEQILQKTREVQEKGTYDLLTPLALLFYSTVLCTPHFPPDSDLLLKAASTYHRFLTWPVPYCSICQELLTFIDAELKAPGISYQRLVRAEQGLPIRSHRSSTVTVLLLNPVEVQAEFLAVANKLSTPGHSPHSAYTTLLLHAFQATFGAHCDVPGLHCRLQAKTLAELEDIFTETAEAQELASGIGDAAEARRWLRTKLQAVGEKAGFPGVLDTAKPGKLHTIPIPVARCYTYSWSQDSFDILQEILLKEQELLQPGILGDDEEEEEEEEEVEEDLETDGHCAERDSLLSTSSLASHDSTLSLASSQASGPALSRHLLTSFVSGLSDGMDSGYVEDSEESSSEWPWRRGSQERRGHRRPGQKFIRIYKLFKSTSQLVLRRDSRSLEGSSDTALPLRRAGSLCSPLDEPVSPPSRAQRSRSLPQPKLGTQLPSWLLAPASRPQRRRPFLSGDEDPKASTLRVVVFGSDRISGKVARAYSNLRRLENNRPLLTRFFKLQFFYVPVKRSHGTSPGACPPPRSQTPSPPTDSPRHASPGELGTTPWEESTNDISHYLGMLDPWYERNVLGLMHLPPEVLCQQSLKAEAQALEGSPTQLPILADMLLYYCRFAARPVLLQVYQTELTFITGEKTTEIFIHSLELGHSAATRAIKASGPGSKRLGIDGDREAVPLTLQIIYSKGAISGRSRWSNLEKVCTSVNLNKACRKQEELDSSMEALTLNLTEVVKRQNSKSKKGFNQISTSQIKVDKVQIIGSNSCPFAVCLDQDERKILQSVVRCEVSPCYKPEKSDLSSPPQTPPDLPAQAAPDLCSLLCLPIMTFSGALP

Going from `CC(C)(C)c1cc(I)cc(CN2C(=O)COc3ccc(C=C4SC(=S)NC4=O)cc32)c1` [Example 52, 4-(3-tert-Butyl-5-iodo-benzyl)-6-(4-oxo-2-thioxo-thiazolidin-5-ylidenemethyl)-4H-1,4-benzoxazin-3-one] to `CC(C)(C)c1cc(C#N)cc(CN2C(=O)COc3ccc(C=C4SC(=S)NC4=O)cc32)c1` [Example 55, 3-tert-Butyl-5-[3-oxo-6-(4-oxo-2-thioxo-thiazolidin-5-ylidenemethyl)-2,3-dihydro-1,4-benzoxazin-4-ylmethyl]-benzonitrile], the IC50 falls from 16 nM to 9 nM (1.8-fold). The second is the more potent here.

First: O=C1COc2c(F)cc(C=C3SC(=S)NC3=O)cc2N1 [Example 53, 8-Fluoro-6-(4-oxo-2-thioxo-thiazolidin-5-ylidenemethyl)-4H-1,4-benzoxazin-3-one]
Second: Cc1cc(C)cc(CN2C(=O)COc3c(F)cc(C=C4SC(=S)NC4=O)cc32)c1 [Example 69, 4-(3,5-Dimethyl-benzyl)-8-fluoro-6-(4-oxo-2-thioxo-thiazolidin-5-ylidenemethyl)-4H-1,4-benzoxazin-3-one]
The IC50 of the first is 5.4-fold higher: 43 nM for the first, 8 nM for the second.

Going from `CC(C)(C)c1cc(CN2C(=O)COc3c(F)cc(C=C4SC(=S)NC4=O)cc32)cc(C(C)(C)C)c1` [Example 54, 4-(3,5-Di-tert-butyl-benzyl)-8-fluoro-6-(4-oxo-2-thioxo-thiazolidin-5-ylidenemethyl)-4H-1,4-benzoxazin-3-one] to `Cc1cc(C=C2SC(=S)NC2=O)cc2c1OCC(=O)N2Cc1cc(C(C)(C)C)cc(C(C)(C)C)c1` [Example 61, 4-(3,5-Di-tert-butyl-benzyl)-8-methyl-6-(4-oxo-2-thioxo-thiazolidin-5-ylidenemethyl)-4H-1,4-benzoxazin-3-one], the IC50 rises from 40 nM to 70 nM (1.8-fold).

Compared with `C=Cc1cc(CN2C(=O)COc3ccc(C=C4SC(=S)NC4=O)cc32)cc(C(C)(C)C)c1` [Example 56, 4-(3-tert-Butyl-5-vinyl-benzyl)-6-(4-oxo-2-thioxo-thiazolidin-5-ylidenemethyl)-4H-1,4-benzoxazin-3-one], `CCc1cc(CN2C(=O)COc3ccc(C=C4SC(=S)NC4=O)cc32)cc(C(C)(C)C)c1` [Example 63, 4-(3-tert-Butyl-5-ethyl-benzyl)-6-(4-oxo-2-thioxo-thiazolidin-5-ylidenemethyl)-4H-1,4-benzoxazin-3-one] is 2.7-fold higher in IC50: 18 nM for the first, 49 nM for the second.

Going from `COC(=O)c1cc(CN2C(=O)COc3ccc(C=C4SC(=S)NC4=O)cc32)cc(C(C)(C)C)c1` [Example 57, 3-tert-Butyl-5-[3-oxo-6-(4-oxo-2-thioxo-thiazolidin-5-ylidenemethyl)-2,3-dihydro-1,4-benzoxazin-4-ylmethyl]-benzoic acid methyl ester] to `CC(=O)c1cc(CN2C(=O)COc3ccc(C=C4SC(=S)NC4=O)cc32)cc(C(C)(C)C)c1` [Example 64, 4-(3-Acetyl-5-tert-butyl-benzyl)-6-(4-oxo-2-thioxo-thiazolidin-5-ylidenemethyl)-4H-1,4-benzoxazin-3-one], the IC50 falls from 29 nM to 16 nM (1.8-fold). The second is the more potent here.

`CC(C)(C)c1cc(CN2C(=O)COc3ccc(C=C4SC(=S)NC4=O)cc32)cc(C(=O)O)c1` [Example 58, 3-tert-Butyl-5-[3-oxo-6-(4-oxo-2-thioxo-thiazolidin-5-ylidenemethyl)-2,3-dihydro-1,4-benzoxazin-4-ylmethyl]-benzoic acid] and `CC(C)(C)c1cc(CN2C(=O)COc3ccc(C=C4SC(=S)NC4=O)cc32)cc(C(=O)NCC(=O)O)c1` [Example 60, {3-tert-Butyl-5-[3-oxo-6-(4-oxo-2-thioxo-thiazolidin-5-ylidenemethyl)-2,3-dihydro-1,4-benzoxazin-4-ylmethyl]-benzoylamino}-acetic acid] are within 1.5-fold of each other in IC50: 32 nM for the first, 26 nM for the second.

Compared with `CC(C)(C)OC(=O)CNC(=O)c1cc(CN2C(=O)COc3ccc(C=C4SC(=S)NC4=O)cc32)cc(C(C)(C)C)c1` [Example 59, {3-tert-Butyl-5-[3-oxo-6-(4-oxo-2-thioxo-thiazolidin-5-ylidenemethyl)-2,3-dihydro-1,4-benzoxazin-4-ylmethyl]-benzoylamino}-acetic acid tert-butyl ester], `CC(=O)OCc1cc(CN2C(=O)COc3ccc(C=C4SC(=S)NC4=O)cc32)cc(C(C)(C)C)c1` [Example 70, Acetic acid 3-tert-butyl-5-[3-oxo-6-(4-oxo-2-thioxo-thiazolidin-5-ylidenemethyl)-2,3-dihydro-1,4-benzoxazin-4-ylmethyl]-benzyl ester] is 5.8-fold lower in IC50: 70 nM for the first, 12 nM for the second.

Going from `CC(c1cc(C(C)(C)C)cc(C(C)(C)C)c1)N1C(=O)COc2ccc(C=C3SC(=S)NC3=O)cc21` (centres unmarked) [Example 62, 4-[1-(3,5-Di-tert-butyl-phenyl)-ethyl]-6-(4-oxo-2-thioxo-thiazolidin-5-ylidenemethyl)-4H-1,4-benzoxazin-3-one] to `CC(C)(C)c1cc(CN2C(=O)COc3ccc(C=C4SC(=S)NC4=O)cc32)cc(-c2ccccc2)c1` [Example 65, 4-(5-tert-Butyl-biphenyl-3-ylmethyl)-6-(4-oxo-2-thioxo-thiazolidin-5-ylidenemethyl)-4H-1,4-benzoxazin-3-one], the IC50 falls from 850 nM to 95 nM (8.9-fold).

First: CC(C)(C)c1cc(CN2C(=O)COc3ccc(C=C4SC(=O)NC4=O)cc32)cc(C(C)(C)C)n1 [Example 66, 5-[4-(2,6-Di-tert-butyl-pyridin-4-ylmethyl)-3-oxo-3,4-dihydro-2H-1,4-benzoxazin-6-ylmethylene]-thiazolidine-2,4-dione]
Second: Cc1cc(C)cc(CN2C(=O)COc3c(Cl)cc(C=C4SC(=O)NC4=O)cc32)c1 [Example 68, 5-[8-Chloro-4-(3,5-dimethyl-benzyl)-3-oxo-3,4-dihydro-2H-1,4-benzoxazin-6-ylmethylene]-thiazolidine-2,4-dione]
The IC50 of the first is 2.2-fold lower: 257 nM for the first, 555 nM for the second.

Going from `Cc1cc(C)cc(CN2C(=O)COc3c(Cl)cc(C=C4SC(=S)NC4=O)cc32)c1` [Example 67, 8-Chloro-4-(3,5-dimethyl-benzyl)-6-(4-oxo-2-thioxo-thiazolidin-5-ylidenemethyl)-4H-1,4-benzoxazin-3-one] to `CCN(CC)Cc1ccc(CN2C(=O)COc3c(F)cc(C=C4SC(=S)NC4=O)cc32)cc1` [Example 72, 4-(4-Diethylaminomethyl-benzyl)-8-fluoro-6-(4-oxo-2-thioxo-thiazolidin-5-ylidenemethyl)-4H-1,4-benzoxazin-3-one], the IC50 falls from 60 nM to 14 nM (4.3-fold). The second is the more potent here.

`O=C1NC(=S)SC1=Cc1cc(F)c2c(c1)N(Cc1ccc(CN3CCOCC3)cc1)C(=O)CO2` [Example 71, 8-Fluoro-4-(4-morpholin-4-ylmethyl-benzyl)-6-(4-oxo-2-thioxo-thiazolidin-5-ylidenemethyl)-4H-1,4-benzoxazin-3-one] and `O=C1NC(=S)SC1=Cc1cc(F)c2c(c1)N(Cc1ccc(CN3CCCCC3)cc1)C(=O)CO2` [Example 73, 8-Fluoro-6-(4-oxo-2-thioxo-thiazolidin-5-ylidenemethyl)-4-(4-piperidin-1-ylmethyl-benzyl)-4H-1,4-benzoxazin-3-one] are within 1.5-fold of each other in IC50: 6 nM for the first, 7 nM for the second.

`CC(C)(C)OC(=O)N1CCN(Cc2ccc(CN3C(=O)COc4ccc(C=C5SC(=S)NC5=O)cc43)cc2)CC1` [Example 74, 4-{4-[3-Oxo-6-(4-oxo-2-thioxo-thiazolidin-5-ylidenemethyl)-2,3-dihydro-1,4-benzoxazin-4-ylmethyl]-benzyl}-piperazine-1-carboxylic acid tert-butyl ester] gave an IC50 of 19 nM.
